Experimental data: patent US9051310B2, “Nicotinamide derivative or salt thereof” (FUJIFILM Corporation, priority 2011, dated 2015)

Tests used:
[1] = biological target: T1, glutathione S-transferase (GST)-linked full-length human Syk protein (Homo sapiens, UniProt P43405); assay: Syk enzyme assay; format: biochemical; details: 0.83 nM Syk, time-resolved fluorescence; read-out: IC50 of Syk-inhibitory activity
T1 construct: glutathione S-transferase (GST)-linked full-length human Syk protein; purchased Carna Biosciences; host or cells: Baculovirus expression system
Procedure, shortened: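 Phosphotyrosine on a biotin-peptide substrate (0.5 μM) was read by time-resolved fluorescence at 615 and 665 nm with Eu-anti-pTyr antibody and APC-streptavidin after 1 h EDTA stop.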

[2] = system: THP-1 cells (phagocytosis of opsonized Escherichia coli); assay: Antibody-dependent phagocytosis assay; format: cell-based; details: Homo sapiens; IFNγ differentiated THP-1 cells, opsonized pHrodo Escherichia coli, 3 hours; read-out: IC50 upon phagocytosis inhibition
Procedure, shortened: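 THP-1 cells were differentiated to macrophage-like cells with 10 ng/ml IFNγ for 2 days, then treated with test compound for 30 min at room temperature. pHrodo-labeled E. coli opsonized with anti-E. coli antibody were added for 3 h at 37° C. Phagocytosis by viable (Calcein AM-positive) cells was quantified by imaging.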

[3] = system: THP-1 cells (TNFα secretion on human IgG-coated plate); assay: TNFα generation assay; format: cell-based; details: IFN-γ differentiated THP-1 cells, 7 hours, AlphaLISA, read-out: IC50 of TNFα generation inhibitory activity
Procedure, shortened: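 THP-1 cells were differentiated with 10 ng/ml IFN-γ for 2 days, then preincubated with compound for 30 min at room temperature. They were then plated at 5×10^4 cells/well on plates coated with human IgG (10 μg/ml). TNFα secreted over 7 h of culture was quantified by AlphaLISA.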

Structure (SMILES)	IC50 [1]	IC50 [2]	IC50 [3]
CC[C@H](N)[C@@H](C)Nc1nc(Nc2ccc3c(c2)c(C)nn3CCOC)c(C(N)=O)cc1F [Example 2-136, 6-(((2R,3S)-3-aminopentan-2-yl)amino)-5-fluoro-2-((1-(2-methoxyethyl)-3-methyl-1H-indazol-5-yl)amino)nicotinamide]	10 to 50 nM	1000 to 3000 nM	130 to 200 nM
COc1ncc(Nc2nc(N[C@H](C3CC3)[C@H](C)N)c(F)cc2C(N)=O)cc1-n1ccnn1 [Example 2-162, 6-(((1R,2S)-2-amino-1-cyclopropylpropyl)amino)-5-fluoro-2-((6-methoxy-5-(1H-1,2,3-triazol-1-yl)pyridin-3-yl)amino)nicotinamide]	10 to 50 nM	1000 to 3000 nM	130 to 200 nM
CC[C@@H](Nc1nc(Nc2ccc3c(c2)c(OC(F)F)nn3C)c(C(N)=O)cc1F)[C@H](C)N [Example 2-170, 6-(((2S,3R)-2-aminopentan-3-yl)amino)-2-((3-(difluoromethoxy)-1-methyl-1H-indazol-5-yl)amino)-5-fluoronicotinamide]	< 10 nM	1000 to 3000 nM	130 to 200 nM
Cc1ncc(Nc2nc(N[C@@H]3CCOC[C@@H]3N)c(F)cc2C(N)=O)cc1-n1nccn1 [Example 2-214, 6-(((3R,4R)-3-aminotetrahydro-2H-pyran-4-yl)amino)-5-fluoro-2-((6-methyl-5-(2H-1,2,3-triazol-2-yl)pyridin-3-yl)amino)nicotinamide]	< 10 nM	1000 to 3000 nM	65 to 130 nM
COc1ncc(Nc2nc(N[C@@H]3CCOC[C@@H]3N)c(F)cc2C(N)=O)cc1-n1nccn1 [Example 2-216, 6-(((3R,4R)-3-aminotetrahydro-2H-pyran-4-yl)amino)-5-fluoro-2-((6-methoxy-5-(2H-1,2,3-triazol-2-yl)pyridin-3-yl)amino)nicotinamide]	10 to 50 nM	1000 to 3000 nM	130 to 200 nM
Cc1cncc(Nc2nc(N[C@@H]3CCOC[C@@H]3N)c(F)cc2C(N)=O)c1 [Example 2-218, 6-(((3R,4R)-3-aminotetrahydro-2H-pyran-4-yl)amino)-5-fluoro-2-((5-methylpyridin-3-yl)amino)nicotinamide]	10 to 50 nM	1000 to 3000 nM	65 to 130 nM
Cc1ncc(Nc2nc(N[C@H](C3CCC3)[C@H](C)N)c(F)cc2C(N)=O)cc1F [Example 2-221, 6-(((1R,2S)-2-amino-1-cyclobutylpropyl)amino)-5-fluoro-2-((5-fluoro-6-methylpyridin-3-yl)amino)nicotinamide]	< 10 nM	< 1000 nM	130 to 200 nM
Cc1ncc(Nc2nc(N[C@H](CC(C)C)[C@H](C)N)c(F)cc2C(N)=O)cc1F [Example 2-224, 6-(((2S,3R)-2-amino-5-methylhexan-3-yl)amino)-5-fluoro-2-((5-fluoro-6-methylpyridin-3-yl)amino)nicotinamide]	< 10 nM	1000 to 3000 nM	130 to 200 nM
CC(C)C[C@@H](Nc1nc(Nc2ccnc(N3CCOCC3)c2F)c(C(N)=O)cc1F)[C@H](C)N [Example 2-235, 6-(((2S,3R)-2-amino-5-methylhexan-3-yl)amino)-5-fluoro-2-((3-fluoro-2-morpholinopyridin-4-yl)amino)nicotinamide]	< 10 nM	< 1000 nM	65 to 130 nM

Further lines, results first:

IC50 [1]	IC50 [2]	IC50 [3]	Structure (SMILES)
10 to 50 nM	1000 to 3000 nM	65 to 130 nM	CC[C@H](N)[C@@H](C)Nc1nc(Nc2cnc(C)c(F)c2)c(C(N)=O)cc1F [Example 2-270, 6-(((2R,3S)-3-aminopentan-2-yl)amino)-5-fluoro-2-((5-fluoro-6-methylpyridin-3-yl)amino)nicotinamide]
10 to 50 nM	< 1000 nM	130 to 200 nM	Cc1ncc(Nc2nc(N[C@H](c3ccc(F)cc3)[C@H](C)N)c(F)cc2C(N)=O)cc1F [Example 2-272, 6-(((1R,2S)-2-amino-1-(4-fluorophenyl)propyl)amino)-5-fluoro-2-((5-fluoro-6-methylpyridin-3-yl)amino)nicotinamide]
10 to 50 nM	1000 to 3000 nM	130 to 200 nM	CNc1ncc(Nc2nc(N[C@H](C3CCC3)[C@H](C)N)c(F)cc2C(N)=O)cc1F [Example 2-275, 6-(((1R,2S)-2-amino-1-cyclobutylpropyl)amino)-5-fluoro-2-((5-fluoro-6-(methylamino)pyridin-3-yl)amino)nicotinamide]
< 10 nM	1000 to 3000 nM	130 to 200 nM	COCCn1ncc2c(Nc3nc(N[C@H](C4CC4)[C@H](C)N)c(F)cc3C(N)=O)cccc21 [Example 2-306, 6-(((1R,2S)-2-amino-1-cyclopropylpropyl)amino)-5-fluoro-2-((1-(2-methoxyethyl)-1H-indazol-4-yl)amino)nicotinamide]
< 10 nM	< 1000 nM	65 to 130 nM	CCn1ncc2c(Nc3nc(N[C@@H]4CCCC[C@@H]4N)c(F)cc3C(N)=O)cncc21 [Example 2-316]
< 10 nM	1000 to 3000 nM	65 to 130 nM	CCn1ncc2c(Nc3nc(N[C@@H]4CCOC[C@@H]4N)c(F)cc3C(N)=O)cncc21 [Example 2-317, 6-(((3R,4R)-3-aminotetrahydro-2H-pyran-4-yl)amino)-2-((1-ethyl-1H-pyrazolo[3,4-c]pyridin-4-yl)amino)-5-fluoronicotinamide]
< 10 nM	< 1000 nM	65 to 130 nM	CCC[C@@H](Nc1nc(Nc2cncc3c2cnn3CC)c(C(N)=O)cc1F)[C@H](C)N [Example 2-319, 6-(((2S,3R)-2-aminohexan-3-yl)amino)-2-((1-ethyl-1H-pyrazolo[3,4-c]pyridin-4-yl)amino)-5-fluoronicotinamide]
< 10 nM	< 1000 nM	65 to 130 nM	CCn1ncc2c(Nc3nc(N[C@H](C4CC4)[C@H](C)N)c(F)cc3C(N)=O)cncc21 [Example 2-320, 6-(((1R,2S)-2-amino-1-cyclopropylpropyl)amino)-2-((1-ethyl-1H-pyrazolo[3,4-c]pyridin-4-yl)amino)-5-fluoronicotinamide]
< 10 nM	1000 to 3000 nM	130 to 200 nM	CCCC[C@@H](Nc1nc(Nc2cncc3c2cnn3CC)c(C(N)=O)cc1F)[C@H](C)N [Example 2-321, 6-(((2S,3R)-2-aminoheptan-3-yl)amino)-2-((1-ethyl-1H-pyrazolo[3,4-c]pyridin-4-yl)amino)-5-fluoronicotinamide]
< 10 nM	< 1000 nM	65 to 130 nM	CCn1ncc2c(Nc3nc(N[C@H](CC(C)C)[C@H](C)N)c(F)cc3C(N)=O)cncc21 [Example 2-322, 6-(((2S,3R)-2-amino-5-methylhexan-3-yl)amino)-2-((1-ethyl-1H-pyrazolo[3,4-c]pyridin-4-yl)amino)-5-fluoronicotinamide]
< 10 nM	< 1000 nM	130 to 200 nM	CC[C@H](N)[C@@H](C)Nc1nc(Nc2cncc3c2cnn3CC)c(C(N)=O)cc1F [Example 2-325, 6-(((2R,3S)-3-aminopentan-2-yl)amino)-2-((1-ethyl-1H-pyrazolo[3,4-c]pyridin-4-yl)amino)-5-fluoronicotinamide]
< 10 nM	< 1000 nM	65 to 130 nM	NC(=O)c1cc(F)c(N[C@@H]2CCOC[C@@H]2N)nc1Nc1cccc2c1cnn2CC(F)F [Example 2-332, 6-(((3R,4R)-3-aminotetrahydro-2H-pyran-4-yl)amino)-2-((1-(2,2-difluoroethyl)-1H-indazol-4-yl)amino)-5-fluoronicotinamide]
